IC50 data for 25 compounds are collected here from patent US10287301B2 (Achillion Pharmaceuticals, Inc., priority 2015, dated 2019).

A word on the IC50: it is the concentration needed to halve the response being measured.

The structures appear in SMILES notation.

Human Factor D, sequence (P00746 26-253): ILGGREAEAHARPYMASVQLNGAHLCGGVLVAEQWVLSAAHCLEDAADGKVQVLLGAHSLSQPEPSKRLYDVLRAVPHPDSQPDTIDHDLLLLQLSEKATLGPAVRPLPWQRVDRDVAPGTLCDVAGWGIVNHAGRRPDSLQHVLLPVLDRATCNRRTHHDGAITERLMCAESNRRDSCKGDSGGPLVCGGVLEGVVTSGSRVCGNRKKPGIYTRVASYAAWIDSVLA

One experiment concerns the target Human Factor D (Homo sapiens (Human), UniProt P00746). The experiment in a line: Human Factor D Assay. Format: biochemical.
Conditions: not given
Put shortly:
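Factor D (from human serum) 80 nM final + cpd, 5 min RT, 50 mM Tris/1M NaCl pH 7.5; add Z-L-Lys-SBzl 100 μM and DTNB 100 μM final. IC50 by nonlinear fit of rates vs [cpd].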
`CC(=O)c1nn(CC(=O)N2[C@@H]3CC[C@@H](C3)[C@H]2C(=O)Nc2cccc(Br)n2)c2ccc(-c3cnc(C)nc3)cc12` [Compound 491, (1R,3S,4S)-2-(2-(3-acetyl-5-(2-methylpyrimidin-5-yl)-1H-indazol-1-yl)acetyl)-N-(6-bromopyridin-2-yl)-2-azabicyclo[2.2.1] heptane-3-carboxamide] returned a concentration for half-maximal inhibition (IC50) below 1 µM.
`Cc1cccc(NC(=O)[C@@H]2[C@H]3CC[C@H](C3)N2C(=O)Cn2cc(C(N)=O)c3cc(-c4ccc5cccnc5c4)ccc32)n1` [Compound 499, 1-(2-((1R,3S,4S)-3-(6-Methylpyridin-2-ylcarbamoyl)-2-azabicyclo[2.2.1]heptan-2-yl)-2-oxoethyl)-5-(quinolin-7-yl)-1H-indole-3-carboxamide] came in with a 50% inhibitory concentration (IC50) of 1 to 10 µM.
In turn, `Cc1cccc(NC(=O)[C@@H]2[C@H]3CC[C@H](C3)N2C(=O)Cn2cc(C(N)=O)c3cc(-c4ccc(F)nc4)ccc32)n1` [Compound 500, 5-(6-Fluoropyridin-3-yl)-1-(2-((1R,3S,4S)-3-(6-methylpyridin-2-ylcarbamoyl)-2-azabicyclo[2.2.1]heptan-2-yl)-2-oxoethyl)-1H-indole-3-carboxamide] yielded an IC50 above 10 µM.
Compound `CC(=O)c1nn(CC(=O)N2C[Si](C)(C)C[C@H]2C(=O)Nc2cccc(Br)n2)c2ccc(-c3cnc(C)nc3)cc12` [Compound 514, (R)-1-(2-(3-acetyl-5-(2-Methylpyrimidin-5-yl)-1H-indazol-1-yl)acetyl)-N-(6-bromopyridin-2-yl)-3,3-dimethyl-1,3-azasilolidine-5-carboxamide] returned a half-inhibitory concentration (IC50) of 1 to 10 µM.

The experiment is the same for the next values; noted with them: Table 3; Human Factor D 80 nM, substrate Z-L-Lys-SBzl; read-out: IC50 (Stars).
As for `CC(=O)c1cn(CC(=O)N2CC[C@H]2C(=O)Nc2cccc(C)n2)c2ccc(-c3cnc(C)nc3)cc12` [Compound 481, (S)-1-(2-(3-a=Acetyl-5-(2-methylpyrimidin-5-yl)-1H-indol-1-yl)acetyl)-N-(6-methylpyridin-2-yl)azetidine-2-carboxamide], the half-maximal inhibitory concentration (IC50) is above 10 µM.
For the compound `CC(=O)c1nn(CC(=O)N2[C@@H]3C[C@@H]3C[C@H]2C(=O)NCC(F)=C(C)C)c2ccc(-c3cnc(C)nc3)cc12` [Compound 482, (1R,3S,5R)-2-(2-(3-acetyl-5-(2-methylpyrimidin-5-yl)-1H-indazol-1-yl)acetyl)-N-(2-fluoro-3-methylbut-2-en-1-yl)-2-azabicyclo[3.1.0] hexane-3-carboxamide], the half-inhibitory concentration (IC50) was below 1 µM.
For `CC(=O)c1nn(CC(=O)N2C[C@H](F)C[C@H]2C(=O)NCc2cccc(Br)n2)c2ccc(-c3cnc(C)nc3)cc12` [Compound 483, (2S,4R)-1-(2-(3-Acetyl-5-(2-methylpyrimidin-5-yl)-1H-indazol-1-yl)acetyl)-N-((6-bromopyridin-2-yl)methyl)-4-fluoropyrrolidine-2-carboxamide], the IC50 was below 1 µM.
In the case of `COc1cc(Br)nc(NC(=O)[C@@H]2C[C@@]3(C)C[C@H]3N2C(=O)Cn2nc(C(C)=O)c3cc(-c4cnc(C)nc4)ccc32)c1` [Compound 484, (1R,3S,5R)-2-(2-(3-Acetyl-5-(2-methylpyrimidin-5-yl)-1H-indazol-1-yl)acetyl)-N-(6-bromo-4-methoxypyridin-2-yl)-5-methyl-2-azabicyclo[3.1.0]hexane-3-carboxamide], the IC50 is below 1 µM.
In the case of `CC(=O)c1nn(CC(=O)N2[C@H](C(=O)Nc3nc(Br)ccc3C)C[C@@]3(C)C[C@@H]23)c2ccc(-c3cnc(C)nc3)cc12` [Compound 485, (1R,3S,5R)-2-(2-(3-Acetyl-5-(2-methylpyrimidin-5-yl)-1H-indazol-1-yl)acetyl)-N-(6-bromo-3-methylpyridin-2-yl)-5-methyl-2-azabicyclo[3.1.0]hexane-3-carboxamide], the IC50 was below 1 µM.
Consider `COc1ncc(-c2ccc3c(c2)c(C(C)=O)nn3CC(=O)N2[C@H](C(=O)Nc3cncc(Br)n3)C[C@@]3(C)C[C@@H]23)cn1` [Compound 486], for which the IC50 was below 1 µM.
For `CC(=O)c1nn(CC(=O)N2C[C@H]3C[C@H]3[C@H]2C(=O)Nc2nc(Br)ccc2C)c2ccc(-c3cnc(C)nc3)cc12` [Compound 488, (1R,2S,5S)-3-(2-(3-Acetyl-5-(2-methylpyrimidin-5-yl)-1H-indazol-1-yl)acetyl)-N-(6-bromo-3-methylpyridin-2-yl)-3-azabicyclo[3.1.0]hexane-2-carboxamide], the 50% inhibitory concentration (IC50) was below 1 µM.
For `Cc1cccc(NC(=O)[C@@H]2[C@H]3CC[C@H](C3)N2C(=O)Cn2cc(C(N)=O)c3cc(-c4ccc5ccccc5c4)ccc32)n1` [Compound 489, 1-(2-((1R,3S,4S)-3-((6-Methylpyridin-2-yl)carbamoyl)-2-azabicyclo[2.2.1]heptan-2-yl)-2-oxoethyl)-5-(naphthalen-2-yl)-1H-indole-3-carboxamide], the half-maximal inhibitory concentration (IC50) is above 10 µM.
As for `Cc1cccc(NC(=O)[C@@H]2[C@H]3CC[C@H](C3)N2C(=O)Cn2cc(C(N)=O)c3cc(-c4cccc(C#N)c4)ccc32)n1` [Compound 497, 5-(3-Cyanophenyl)-1-(2-((1R,3S,4S)-3-(6-methylpyridin-2-ylcarbamoyl)-2-azabicyclo[2.2.1]heptan-2-yl)-2-oxoethyl)-1H-indole-3-carboxamide], the 50% inhibitory concentration (IC50) was above 10 µM.
With `Cc1cccc(NC(=O)[C@@H]2[C@H]3CC[C@H](C3)N2C(=O)Cn2cc(C(N)=O)c3cc(-c4ccc(N)nc4)ccc32)n1` [Compound 498, 5-(6-Aminopyridin-3-yl)-1-(2-((1R,3S,4S)-3-(6-methylpyridin-2-ylcarbamoyl)-2-azabicyclo[2.2.1]heptan-2-yl)-2-oxoethyl)-1H-indole-3-carboxamide], the 50% inhibitory concentration (IC50) was above 10 µM.
Consider `Cc1cccc(NC(=O)[C@@H]2[C@H]3CC[C@H](C3)N2C(=O)Cn2cc(C(N)=O)c3cc(-c4cccnc4)ccc32)n1` [Compound 501, 1-(2-((1R,3S,4S)-3-(6-Methylpyridin-2-ylcarbamoyl)-2-azabicyclo[2.2.1]heptan-2-yl)-2-oxoethyl)-5-(pyridin-3-yl)-1H-indole-3-carboxamide], for which the half-maximal inhibitory concentration (IC50) is above 10 µM.
Same read-out and setting: for `CC(=O)c1nn(CC(=O)N2C[C@H](F)C[C@H]2C(=O)NC/C(F)=C(/C)c2cccc(Cl)c2)c2ccc(-c3cnc(C)nc3)cc12` [Compound 503, (2S,4R)-1-(2-(3-acetyl-5-(2-methylpyrimidin-5-yl)-1H-indazol-1-yl)acetyl)-N-((E)-3-(3-chlorophenyl)-2-fluorobut-2-en-1-yl)-4-fluoropyrrolidine-2-carboxamide] the value was below 1 µM; for `CC(=O)c1nn(CC(=O)N2C[C@H](F)C[C@H]2C(=O)Nc2cccc(Br)n2)c2ccc(-c3ccc4ncncc4c3)cc12` [Compound 504, (2S,4R)-1-(2-(3-Acetyl-5-(quinazolin-6-yl)-1H-indazol-1-yl)acetyl)-N-(6-bromopyridin-2-yl)-4-fluoropyrrolidine-2-carboxamide], below 1 µM; for `CC(=O)c1nn(CC(=O)N2C[C@H](F)C[C@H]2C(=O)Nc2cccc(Br)n2)c2ccc(-c3cnc(OCC(F)(F)F)nc3)cc12` [Compound 505, (2S,4R)-1-(2-(3-Acetyl-5-(2-(S2,2,2-trifluoroethoxy)pyrimidin-5-yl)-1H-indazol-1-yl)acetyl)-N-(6-bromopyridin-2-yl)-4-fluoropyrrolidine-2-carboxamide], below 1 µM.
`CC(=O)c1nn(CC(=O)N2[C@@H]3C[C@@H]3C[C@H]2C(=O)NC/C(F)=C(/C)c2cccc(Cl)c2)c2ccc(-c3cnc(C)nc3)cc12` [Compound 506, (1R,3S,5R)-2-(2-(3-Acetyl-5-(2-methylpyrimidin-5-yl)-1H-indazol-1-yl)acetyl)-N-((E)-3-(3-chlorophenyl)-2-fluorobut-2-en-1-yl)-2-azabicyclo[3.1.0]hexane-3-carboxamide]: the IC50 is below 1 µM.
Same read-out and setting: as for `CC(=O)c1nn(CC(=O)N2C[C@H](F)C[C@H]2C(=O)Nc2cccc(Cl)c2)c2ccc(-c3cnc(C)nc3)cc12` [Compound 508, (2S,4R)-1-(2-(3-Acetyl-5-(2-methylpyrimidin-5-yl)-1H-indazol-1-yl)acetyl)-N-(3-chlorophenyl)-4-fluoropyrrolidine-2-carboxamide], the figure is below 1 µM; as for `CC(=O)c1nn(CC(=O)N2C[C@H](F)C[C@H]2C(=O)Nc2ccc(F)c(Br)c2)c2ccc(-c3cnc(C)nc3)cc12` [Compound 509, (2S,4R)-1-(2-(3-Acetyl-5-(2-methylpyrimidin-5-yl)-1H-indazol-1-yl)acetyl)-N-(3-bromo-4-fluorophenyl)-4-fluoropyrrolidine-2-carboxamide], below 1 µM.
For the compound `CC(=O)c1nn(CC(=O)N2C[C@@](F)(CF)C[C@H]2C(=O)Nc2nc(Br)ccc2C)c2ccc(-c3cnc(C)nc3)cc12` [Compound 511, (2S,4R)-1-(2-(3-Acetyl-5-(2-methylpyrimidin-5-yl)-1H-indazol-1-yl)acetyl)-N-(6-bromo-3-methylpyridin-2-yl)-4-fluoro-4-(fluoromethyl)pyrrolidine-2-carboxamide], the half-inhibitory concentration (IC50) is below 1 µM.
For `CC(=O)N[C@H]1[C@@H](C(=O)Nc2cccc(Br)n2)N(C(=O)Cn2nc(C(C)=O)c3cc(-c4cnc(C)nc4)ccc32)C[C@@H]1F` [Compound 512, (2S,3S,4S)-3-Acetamido-1-(2-(3-acetyl-5-(2-methylpyrimidin-5-yl)-1H-indazol-1-yl)acetyl)-N-(6-bromopyridin-2-yl)-4-fluoropyrrolidine-2-carboxamide], the half-maximal inhibitory concentration (IC50) is below 1 µM.
For `CC(=O)N[C@@H]1CN(C(=O)Cn2nc(C(C)=O)c3cc(-c4cnc(C)nc4)ccc32)[C@H](C(=O)Nc2cccc(Br)n2)[C@H]1F` [Compound 513, (2R,3S,4R)-4-Acetamido-1-(2-(3-acetyl-5-(2-methylpyrimidin-5-yl)-1H-indazol-1-yl)acetyl)-N-(6-bromopyridin-2-yl)-3-fluoropyrrolidine-2-carboxamide], the IC50 was below 1 µM.
On the same count and under the same terms, as for `Cc1cccc(NC(=O)[C@@H]2[C@H]3CC[C@H](C3)N2C(=O)Cn2cc(C(N)=O)c3cc(-c4ccc5c(c4)CCCC5)ccc32)n1` [Compound 515, 1-(2-((1R,3S,4S)-3-(6-Methylpyridin-2-ylcarbamoyl)-2-azabicyclo[2.2.1]heptan-2-yl)-2-oxoethyl)-5-(5,6,7,8-tetrahydronaphthalen-2-yl)-1H-indole-3-carboxamide], the figure is above 10 µM.
